Where a name gives a salt, the structure may show the parent alone. Read-outs that look alike come from different tables or passages of the source. Marks after values point to notes of the source that are not given here.
How the values were obtained:
human OCT2 [1] = target: T1, human OCT2 (Homo sapiens, UniProt O15244); assay: Inhibition of OCT2-mediated ASP uptake in transduced HEK293 cells; type: cell-based
T1 construct: host or cells: HEK293, baculovirus transduction (CMV promoter), transient
T1 sequence (O15244 1-555): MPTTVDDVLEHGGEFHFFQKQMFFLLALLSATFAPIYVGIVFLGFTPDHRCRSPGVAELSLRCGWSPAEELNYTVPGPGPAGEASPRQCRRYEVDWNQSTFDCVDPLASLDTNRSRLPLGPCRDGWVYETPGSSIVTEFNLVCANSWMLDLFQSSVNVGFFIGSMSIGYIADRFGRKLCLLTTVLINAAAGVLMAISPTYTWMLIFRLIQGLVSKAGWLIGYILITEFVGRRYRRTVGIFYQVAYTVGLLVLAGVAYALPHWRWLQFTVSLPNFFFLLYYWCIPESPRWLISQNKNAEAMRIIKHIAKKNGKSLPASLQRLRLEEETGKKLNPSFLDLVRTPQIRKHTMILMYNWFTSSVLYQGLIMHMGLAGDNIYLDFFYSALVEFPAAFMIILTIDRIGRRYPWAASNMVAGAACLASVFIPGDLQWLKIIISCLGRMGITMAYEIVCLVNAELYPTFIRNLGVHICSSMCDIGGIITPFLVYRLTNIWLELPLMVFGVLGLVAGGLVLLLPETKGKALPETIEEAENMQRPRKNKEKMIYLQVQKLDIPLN
Description: HEK293 cells were modified to transiently express (a combination of) human OCT1, OCT2, MATE1, MATE2-K, or eYFP. Briefly, cDNA of the respective genes was cloned downstream of a CMV promoter into a baculovirus, of which passage three was used to transduce HEK293 cells. These cells were seeded in poly-D-lysine coated 24- or 96-wells plates and grown in a 37 °C incubator at 5% CO2. […] After 24 h, cells were transduced with 30 µL virus (10 µL virus + 20 µL complete medium in case of 96-wells plates) or 2 × 15 µL virus for cells that required simultaneous expression of two transporters. Finally, 195 µL sodium butyrate (45 µL for 96-wells plates) was added to a final concentration of 2 mM to enhance protein expression.
AMO (10 mM), ASP (1 mM), CQ (10 mM), PQ (10 mM) and PG (10 mM) were dissolved in MilliQ water. ART (10 mM), ATO (10 mM), DHA (10 mM), LUM (10 mM), MQ (10 mM), NMQ (20 mM), PYR (10 mM), QN (10 mM) were dissolved in DMSO. All compound stocks were stored at − 20 °C. Inhibition of OCT1- or OCT2-mediated ASP uptake by anti-malarials was performed in poly-D-lysine coated 96-wells plates 2 or 3 days following HEK293 cell transduction. In short, cells were washed with 125 µL 37 °C HBSS containing 10 mM HEPES, pH 7.4. […] ASP transport was stopped by washing with 125 µL ice-cold HBSS-HEPES buffer supplemented with 0.5% BSA.
(§1) For each compound, a range of seven concentrations was used to determine the concentration at which ASP uptake was inhibited half maximally (IC50). At least three independent experiments (4 for QN) were performed for each drug in triplicate as described above. […] To generate the final dose–response inhibition curve per anti-malarial, percentage of uptake was averaged for each drug concentration per experiment and the resulting mean ± SEM corresponding to three or four independent experiments were plotted.

[2] = cited from earlier work
[3] = Maximum plasma concentration from in vivo pharmacokinetic studies after therapeutic dosing; conditions: human, the literature Cmax (ng/mL) of Table 2 expressed in µM
Description: As Cmax the (geometric) mean or median maximum plasma concentrations obtained from previous in vivo pharmacokinetic studies after therapeutic dosing was used.

[4] = Ugandan children aged 5–13 years with uncomplicated malaria; (geometric) mean or median; cited from earlier work
human OCT1 [5] = target: T2, human OCT1 (Homo sapiens, UniProt O15245); assay: Inhibition of OCT1-mediated ASP uptake in transduced HEK293 cells; type: cell-based; conditions: 50 µM anti-malarial, 10 µM ASP, 10 min, 37 °C; relative to solvent control fixed at 100%
T2 construct: host or cells: HEK293, baculovirus transduction (CMV promoter), transient
T2 sequence (O15245 1-554): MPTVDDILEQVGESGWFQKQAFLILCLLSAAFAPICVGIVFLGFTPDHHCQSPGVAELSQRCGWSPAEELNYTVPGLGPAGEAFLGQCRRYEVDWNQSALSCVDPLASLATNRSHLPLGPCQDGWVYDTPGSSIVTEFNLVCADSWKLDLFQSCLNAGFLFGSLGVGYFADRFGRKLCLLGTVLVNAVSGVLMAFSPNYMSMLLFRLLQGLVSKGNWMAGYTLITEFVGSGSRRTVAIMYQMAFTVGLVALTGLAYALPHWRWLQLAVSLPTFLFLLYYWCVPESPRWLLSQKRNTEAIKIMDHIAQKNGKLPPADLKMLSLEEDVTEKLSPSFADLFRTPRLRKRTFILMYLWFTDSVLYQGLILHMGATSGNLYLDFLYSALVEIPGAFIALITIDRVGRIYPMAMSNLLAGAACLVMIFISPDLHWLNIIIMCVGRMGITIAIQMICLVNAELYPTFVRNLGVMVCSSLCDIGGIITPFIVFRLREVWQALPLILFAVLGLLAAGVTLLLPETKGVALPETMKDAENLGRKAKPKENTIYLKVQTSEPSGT
Description: (§2) HEK293 cells were modified to transiently express (a combination of) human OCT1, OCT2, MATE1, MATE2-K, or eYFP. Briefly, cDNA of the respective genes was cloned downstream of a CMV promoter into a baculovirus, of which passage three was used to transduce HEK293 cells. These cells were seeded in poly-D-lysine coated 24- or 96-wells plates and grown in a 37 °C incubator at 5% CO2. Growth was initiated at ~ 25% confluency using 375 or 125 μL cell and complete medium (DMEM + GlutaMAX™-I supplemented with 10% fetal bovine serum) suspension per well, respectively. After 24 h, cells were transduced with 30 µL virus (10 µL virus + 20 µL complete medium in case of 96-wells plates) or 2 × 15 µL virus for cells that required simultaneous expression of two transporters. Finally, 195 µL sodium butyrate (45 µL for 96-wells plates) was added to a final concentration of 2 mM to enhance protein expression.
AMO (10 mM), ASP (1 mM), CQ (10 mM), PQ (10 mM) and PG (10 mM) were dissolved in MilliQ water. ART (10 mM), ATO (10 mM), DHA (10 mM), LUM (10 mM), MQ (10 mM), NMQ (20 mM), PYR (10 mM), QN (10 mM) were dissolved in DMSO. All compound stocks were stored at − 20 °C. Inhibition of OCT1- or OCT2-mediated ASP uptake by anti-malarials was performed in poly-D-lysine coated 96-wells plates 2 or 3 days following HEK293 cell transduction. In short, cells were washed with 125 µL 37 °C HBSS containing 10 mM HEPES, pH 7.4. Then, a 50 µL mixture of ASP (10 µM) and anti-malarial compound (25, 50 or 100 µM) in HBSS buffer (pH 7.4) was added to each well and incubated for 10 min at 37 °C. ASP transport was stopped by washing with 125 µL ice-cold HBSS-HEPES buffer supplemented with 0.5% BSA. Following a second wash with 125 µL ice-cold HBSS-HEPES buffer, cells were lysed with 125 µL 1 M NaOH and ASP was excited at a wavelength of 485 nm and fluorescence was detected at an emission wavelength of 535 nm using the Victor X3 multimode plate reader.
as §1, with “above. Inhibition curves were plotted by nonlinear regression analyses of the data using GraphPad Prism version 5.03.” for “above.”

human OCT1 [6] = target: T2, human OCT1; assay: OCT1-mediated cellular import in transduced HEK293 cells (LC-MS/MS); type: cell-based; conditions: 10 µM, 15 min, 37 °C
Description: as §2
HEK293 cells were seeded in 24-wells poly-D-lysine coated plates and transduced the subsequent day with OCT1 or OCT2 as described above. Three days following transduction, OCT1- or OCT2-mediated uptake of ten anti-malarials (AMO, ART, ATO, CQ, DHA, LUM, MQ, PQ, PG, and QN) was performed. NMQ served as a positive substrate for both OCT1 and OCT2 import. In short, cells were washed with 400 µL 37 °C HBSS-HEPES buffer followed by adding 150 µL HBSS buffer with 10 µM anti-malarial or NMQ to each well. After incubation for 15 min at 37 °C, import was stopped by washing with 400 µL ice-cold HBSS-HEPES buffer supplemented with 0.5% BSA. Following a second wash with 400 µL ice-cold HBSS-HEPES buffer, cells were lysed with 200 µL 50% (v/v) MeOH and 0.1% (v/v) formic acid (HCOOH) in water and samples were sent for quantification by mass spectrometry analysis (see “LC–MS/MS quantification of anti-malarials” section). […]
(§3) The affinity (KM) and maximum transport rate (Vmax) for OCT1 and OCT2 of PG were determined by analysing concentration-dependent uptake data from three independent experiments.
(§4) Import and export of PG and cycloguanil (CG) was assessed by single and double transduced HEK293 cells. […] Following the same procedure as for the cellular import assay described above, the import of 100 µM PG and CG was measured after 5 min incubation and data was plotted as mean pmol/mg/min ± SEM. […] Significant reduction in uptake (i.e. export by MATEs) was determined using ln transformation and a one-way repeated measures ANOVA with Dunnet’s post test.
Anti-malarial concentration in the cell lysates was quantified using an LC–MS/MS system consisting of a UPLC, a binary solvent manager, a vacuum degasser and an autosampler, coupled to a Xevo TQ-S micro triple quadrupole mass spectrometer. […]

human OCT2 [7] = target: T1, human OCT2; assay: OCT2-mediated cellular import in transduced HEK293 cells (LC-MS/MS); type: cell-based; conditions: 10 µM, 15 min, 37 °C
Description: as §2
HEK293 cells were seeded in 24-wells poly-D-lysine coated plates and transduced the subsequent day with OCT1 or OCT2 as described above. Three days following transduction, OCT1- or OCT2-mediated uptake of ten anti-malarials (AMO, ART, ATO, CQ, DHA, LUM, MQ, PQ, PG, and QN) was performed. […] Following a second wash with 400 µL ice-cold HBSS-HEPES buffer, cells were lysed with 200 µL 50% (v/v) MeOH and 0.1% (v/v) formic acid (HCOOH) in water and samples were sent for quantification by mass spectrometry analysis (see “LC–MS/MS quantification of anti-malarials” section). […]
as §3
as §4, with “test. […]” for “test.”

[8] = substrate: [H]/N=C(\N/C(=N/[H])Nc1ccc(Cl)cc1)NC(C)C; assay: OCT1-mediated cellular import in transduced HEK293 cells (LC-MS/MS); type: cell-based, human; conditions: other: 1 min incubation, 37 °C, 2.0–16 µM, pH 7.4
Description: HEK293 cells were modified to transiently express (a combination of) human OCT1, OCT2, MATE1, MATE2-K, or eYFP. Briefly, cDNA of the respective genes was cloned downstream of a CMV promoter into a baculovirus, of which passage three was used to transduce HEK293 cells. These cells were seeded in poly-D-lysine coated 24- or 96-wells plates and grown in a 37 °C incubator at 5% CO2. Growth was initiated at ~ 25% confluency using 375 or 125 μL cell and complete medium (DMEM + GlutaMAX™-I supplemented with 10% fetal bovine serum) suspension per well, respectively. […]
HEK293 cells were seeded in 24-wells poly-D-lysine coated plates and transduced the subsequent day with OCT1 or OCT2 as described above. […] Following a second wash with 400 µL ice-cold HBSS-HEPES buffer, cells were lysed with 200 µL 50% (v/v) MeOH and 0.1% (v/v) formic acid (HCOOH) in water and samples were sent for quantification by mass spectrometry analysis (see “LC–MS/MS quantification of anti-malarials” section). […]
as §3
Import and export of PG and cycloguanil (CG) was assessed by single and double transduced HEK293 cells. […]

[9] = 50 µM anti-malarial, 10 µM ASP, 10 min, 37 °C, relative to solvent control fixed at 100%

## CCN(CC)Cc1cc(Nc2ccnc3cc(Cl)ccc23)ccc1O [Amodiaquine, amodiaquine dihydrochloride dehydrate]
Human OCT2 [1]; 10 µM ASP, 10 min, 37 °C, seven concentrations
  IC50: 11 µM
Human OCT2 [1]; [9]
  Relative ASP uptake (OCT2-mediated): 12.1 ± 0.6%
[2]
  Unbound fraction: 0.1 [46]
[3]
  Cmax: 0.015 µM
[4]
  Cmax: 5.2^c [45] ng/mL
Human OCT1 [5]
  Relative ASP uptake (OCT1-mediated): 67 ± 4%

## C[C@@H]1CC[C@H]2[C@@H](C)C(=O)O[C@@H]3O[C@@]4(C)CC[C@@H]1[C@]32OO4 [Artemisinin, artemisinin]
Human OCT2 [1]; [9]
  Relative ASP uptake (OCT2-mediated): 61 ± 13%

## CCN(CC)CCCC(C)Nc1ccnc2cc(Cl)ccc12 (centres unmarked) [Chloroquine, chloroquine diphosphate]
Human OCT2 [1]
  Relative ASP uptake (OCT2-mediated): 48 ± 11%

## OC(c1cc(C(F)(F)F)nc2c(C(F)(F)F)cccc12)C1CCCCN1 (centres unmarked) [Mefloquine, mefloquine hydrochloride]
Human OCT1 [5]
  Relative ASP uptake (OCT1-mediated): 150 ± 21%

## C=C[C@H]1C[N+]2(C)CC[C@H]1C[C@@H]2[C@@H](O)c1ccnc2ccc(OC)cc12 [NMQ, N-methyl-quinidine]
Human OCT1 [6]
  Uptake by OCT1, percentage of mock-transduced control: taken up
Human OCT2 [7]
  Uptake by OCT2, percentage of mock-transduced control: taken up

## COc1cc(NC(C)CCCN)c2ncccc2c1 (centres unmarked) [Primaquine, primaquine diphosphate]
Human OCT2 [1]; [9]
  Relative ASP uptake (OCT2-mediated): 60 ± 7%
Human OCT1 [5]
  Relative ASP uptake (OCT1-mediated): 59 ± 3%

B1: human OCT1 (Homo sapiens) (protein)
chain: T2 sequence (O15245 1-554)
notes: host or cells: HEK293, baculovirus transduction (CMV promoter), transient
[8]
  Km: 8.1 µM

From PMC5654082 (Malaria Journal, 2017)
